Results published in patent US6475724B1, “Nucleic acids, kits, and methods for the diagnosis, prognosis and treatment of glaucoma and related disorders” (The Regents of the University of California, priority 1997, dated 2002).
“Also recorded” adds a separate entry of the source.

B1: SEQ ID NO: 37: 283 bp region from 5340 to 5044 of SEQ ID NO: 3, TIGR 5′ regulatory region (nucleic acid, listed as Homo sapiens)
DNA: AACTATTATTGGGGTATGGGTGCATAAATTGGGATGTTCTTTTTAAAAAGAAACTCCAAACAGACTTCTGGAAGGTTATTTTCTAAGAATCTTGCTGGCAGCGTGAAGGCAACCCCCCTGTGCACAGCCCCACCCAGCCTCACGTGGCCACCTCTGTCTTCCCCCATGAAGGGCTGGCTCCCCAGTATATATAAACCTCTCTGGAGCTCGGGCATGAGCCAGCAAGGCCACCCATCCAGGCACCTCTCAGCACAGCAGAGCTTTCCAGAGGAAGCCTCACCAA

Assays:
[1] = IOP response to topical dexamethasone eye drops, Armaly criteria; type: in vivo, human; conditions: topical dexamethasone eye drops (0.1%) four times a day for four weeks; one line per subject (subjects 1-7); pre- vs post-treatment IOP
Protocol: Subjects are given standard topical dexamethasone eye drops (0.1%) four times a day, for four weeks. Pre-treatment and post-treatment IOP readings are taken and patients are classified as having high (>16 mmHg), intermediate (6-16 mmHg) or low (<6 mmHg) IOP responses under the “Armaly” criteria. DNA samples are obtained from four subjects having high or intermediate IOP changes. Samples from several non-responder patients were also taken. The DNA samples were analyzed for the presence of the TIGRmt11 variant sequence, as discussed above.

TIGR gene = test: Induction of the TIGR gene by stress stimulants; type: cell-based
HTM cells = test: TIGR 5′ region/promoter AP reporter activity in HTM cells; type: cell-based, human; conditions: attached reporter gene
Protocol: The 283 base 5′ fragment of the TIGR 5′ region (SEQ ID NO: 37) is amplified from genomic DNA of a normal human subject as discusssed in Example 3. The DNA is cloned into a pSEAP vector (Clontech, Calif.) so that transcription was under the control of the TIGR sequences. More specifically, pSEAP2-enhancer vector is digested with Srfl to produce a blunt end. The 283 bp fragment is blunt end ligated to the vector using T4 ligase for 2 hours. The vector is transfected into DH5 cells to establish a plasmid clone, TMRE-1/pSEAP. PCR sequencing is used to verify the clone sequence as correct. Similarly, the equivalent genomic fragment amplified from a steroid responder sample, identified as mutant TIGR.mt11, is cloned in pSEAP2-enhancer and called clone TIGR.mt11/pSEAP.
HTM cells, Cos cells (COS-7), and HeLa cells (HeLa 229) are seeded at 10^6 cells per well and incubated with 1 ug of the plasmid DNA to transfect using Lipofectin reagent (GIBCO, Life Technologies, Md.). Some samples of cells were also treated with dexamethasone (DEX). Then, 24, 48, and 72 hours after transfection, AP activity was measured. Cells are collected using a buffer containing L-homoarginine and the chemiluminescent substrate CSPD and a chemiluminescent enhancer added to the samples. The expression levels are then recorded using a luminometer or by brief exposure to X-ray film. […]

| Molecule | induction of TIGR gene (TIGR gene) | also measured |
| --- | --- | --- |
| C[C@@H]1C[C@H]2[C@@H]3CCC4=CC(=O)C=C[C@]4(C)[C@@]3(F)[C@@H](O)C[C@]2(C)[C@@]1(O)C(=O)CO [dexamethasone] | – | CS-IOP Response [1]: Low (low (<6 mmHg)); also recorded: Intermediate (intermediate (6-16 mmHg)); also recorded: High (high (>16 mmHg)) |
| OO [H2O2] | induced | – |
| CCCCCCCCCCCCCC(=O)O[C@@H]1[C@@H](C)[C@@]2(O)[C@@H](C=C(CO)C[C@]3(O)C(=O)C(C)=C[C@@H]23)[C@H]2C(C)(C)[C@]12OC(C)=O [TPA, 12-O-tetradecanolyphorbol-13-acetate] | induced | – |
| B1 | – | expression of AP activity, HTM cells compared with HeLa or Cos cells (HTM cells): much higher |
